# Test: solubility of ivermectin in various solvents
# Type: physicochemical
# Text: The table below illustrates the solubility of ivermectin in various solvents: […]
substance,measurement,setting,value
Ivermectin,Maximum % solubility of ivermectin in the solvent concerned (weight/weight),solvent: N-methyl-2-pyrrolidone,58.13 % (weight/weight)
same,Maximum % solubility of ivermectin in the solvent concerned (weight/weight),solvent: Propylene glycol,21.83 % (weight/weight)
same,Maximum % solubility of ivermectin in the solvent concerned (weight/weight),solvent: Propylene glycol/oleyl alcohol (4 parts/2 parts),27.31 % (weight/weight)
same,Maximum % solubility of ivermectin in the solvent concerned (weight/weight),solvent: Triacetin,7.22 % (weight/weight)
